In US20230250106A1, “COMPOUNDS AND COMPOSITIONS FOR TREATING CONDITIONS ASSOCIATED WITH STING ACTIVITY” (IFM Due, Inc., priority 2020, published 2023):

Tested on: STING pathway
Test: STING reporter assay: luciferase reporter activity in THP1-Dual KO-IFNAR2 cells activated with 2'3'cGAMP
Format: cell-based
Conditions: Homo sapiens, 2'3'cGAMP 15 μM, 24 h, read-out: hSTING EC50
In short: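 THP1-Dual KO-IFNAR2 cells were exposed to compounds at 0.0017-100 μM final and stimulated with 2′3′cGAMP (15 μM final) delivered with Lipofectamine 2000. After 24 h at 37 °C, secreted luciferase in the supernatant was read with QUANTI-Luc Plus, and EC50 values were calculated.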

EC50 [nM]	Structure (SMILES)
40 to 200	O=C(Nc1c[nH]c2cc(F)c(F)cc12)c1cnc(N2CC3(CC(OCC(F)(F)F)C3)C2)c(F)c1 [Compound 221, N-(5,6-difluoro-1H-indol-3-yl)-5-fluoro-6-(6-(2,2,2-trifluoroethoxy)-2-azaspiro[3.3]heptan-2-yl)nicotinamide]
200 to 1000	O=C(Nc1c[nH]c2cc(F)c(F)cc12)c1cnc(C2CC3(CC(OCC(F)(F)F)C3)C2)c(F)c1 (stereo not drawn) [Compound 222, N-(5,6-difluoro-1H-indol-3-yl)-5-fluoro-6-(6-(2,2,2-trifluoroethoxy)spiro[3.3]heptan-2-yl)nicotinamide]
40 to 200	O=C(Nc1c[nH]c2cc(F)c(F)cc12)c1cnc(N2C[C@@H]3[C@@H](COCC(F)(F)F)[C@@H]3C2)c(F)c1 [Compound 223, N-(5,6-difluoro-1H-indol-3-yl)-5-fluoro-6-((1R,5S,6r)-6-((2,2,2-trifluoroethoxy)methyl)-3-azabicyclo[3.1.0]hexan-3-yl)nicotinamide]
40 to 200	O=C(Nc1c[nH]c2ccc(Cl)cc12)c1cnc(N2C[C@@H]3[C@@H](COCC(F)(F)F)[C@@H]3C2)c(F)c1 [Compound 224, N-(5-chloro-1H-indol-3-yl)-5-fluoro-6-((1R,5S,6r)-6-((2,2,2-trifluoroethoxy)methyl)-3-azabicyclo[3.1.0]hexan-3-yl)nicotinamide]
40 to 200	O=C(Nc1c[nH]c2ccc(Cl)cc12)c1ccc(N2C[C@@H]3[C@@H](COCC(F)(F)F)[C@@H]3C2)c(F)c1 [Compound 225, N-(5-chloro-1H-indol-3-yl)-3-fluoro-4-((1R,5S,6r)-6-((2,2,2-trifluoroethoxy)methyl)-3-azabicyclo[3.1.0]hexan-3-yl)benzamide]
200 to 1000	COCCOc1ncc(C(=O)Nc2c[nH]c3cc(F)c(F)cc23)cc1C [Compound 226, N-(5,6-difluoro-1H-indol-3-yl)-6-(2-methoxyethoxy)-5-methylnicotinamide]
40 to 200	O=C(Nc1c[nH]c2cc(F)c(F)cc12)c1ccc(N2C[C@@H]3[C@@H](COCC(F)(F)F)[C@@H]3C2)c(F)c1 [Compound 227, N-(5,6-difluoro-1H-indol-3-yl)-3-fluoro-4-((1R,5S,6r)-6-((2,2,2-tifluoroethoxy)methyl)-3-azabicyclo[3.1.0]hexan-3-yl)benzamide]
1000 to 5000	CCC(O)Cc1ccc(C(=O)Nc2c[nH]c3cc(F)c(F)cc23)cn1 (stereo not drawn) [Compound 228, N-(5,6-difluoro-1H-indol-3-yl)-6-(2-hydroxybutyl)nicotinamide]
40 to 200	O=C(Nc1c[nH]c2ccc(Cl)cc12)c1ccc(CC2CCN(CC(F)(F)F)CC2)cc1 [Compound 229, N-(5-chloro-1H-indol-3-yl)-4-((1-(2,2,2-trifluoroethyl)piperidin-4-yl)methyl)benzamide]
40 to 200	O=C(Nc1c[nH]c2ccc(Cl)cc12)c1ccc(OC2CCN(CC(F)(F)F)CC2)cc1 [Compound 230, N-(5-chloro-1H-indol-3-yl)-4-((1-(2,2,2-trifluoroethyl)piperidin-4-yl)oxy)benzamide]
200 to 1000	COCCOc1cc(C(=O)Nc2c[nH]c3cc(F)c(F)cc23)ccc1C(F)(F)F [Compound 232, N-(5,6-difluoro-1H-indol-3-yl)-3-(2-methoxyethoxy)-4-(trifluoromethyl)benzamide]
200 to 1000	O=C(Nc1c[nH]c2cc(F)c(F)cc12)c1ccc(C(O)C2CC(F)(F)C2)cc1 (stereo not drawn) [Compound 233, N-(5,6-difluoro-1H-indol-3-yl)-4-((3,3-difluorocyclobutyl)(hydroxy)methyl)benzamide]
200 to 1000	O=C(Nc1c[nH]c2cc(F)c(F)cc12)c1cccc(-c2noc(C3CC3)n2)c1 [Compound 234, 3-(5-cyclopropyl-1,2,4-oxadiazol-3-yl)-N-(5,6-difluoro-1H-indol-3-yl)benzamide]
5000 to 100000	O=C(Nc1c[nH]c2cc(F)c(F)cc12)c1ccnc(C(O)C(F)(F)F)c1 (stereo not drawn) [Compound 235, N-(5,6-difluoro-1H-indol-3-yl)-2-(2,2,2-trifluoro-1-hydroxyethyl)isonicotinamide]
200 to 1000	COCCNc1cc(C(=O)Nc2c[nH]c3cc(F)c(F)cc23)ccc1C(F)(F)F [Compound 236, N-(5,6-difluoro-1H-indol-3-yl)-3-((2-methoxyethyl)amino)-4-(trifluoromethyl)benzamide]
200 to 1000	O=C(Nc1c[nH]c2cc(F)c(F)cc12)c1ccc(CN2CC3(C2)CC(F)(F)C3)c(F)c1 [Compound 237, N-(5,6-difluoro-1H-indol-3-yl)-4-((6,6-difluoro-2-azaspiro[3.3]heptan-2-yl)methyl)-3-fluorobenzamide]
5000 to 100000	COCCNc1cc(C(=O)Nc2c[nH]c3cc(F)c(F)cc23)ccn1 [Compound 238, N-(5,6-difluoro-1H-indol-3-yl)-2-((2-methoxyethyl)amino)isonicotinamide]
200 to 1000	O=C(Nc1c[nH]c2cc(F)c(F)cc12)c1cnc(NCCC(F)(F)F)c(Cl)c1 [Compound 239, 5-chloro-N-(5,6-difluoro-1H-indol-3-yl)-6-((3,3,3-trifluoropropyl)amino)nicotinamide]
200 to 1000	O=C(Nc1c[nH]c2cc(F)c(F)cc12)c1cnc(C2CC(F)(F)C2)c(Cl)c1 [Compound 240, 5-chloro-N-(5,6-difluoro-1H-indol-3-yl)-6-(3,3-difluorocyclobutyl)nicotinamide]
5000 to 100000	CCC(O)c1cc(C(=O)Nc2c[nH]c3cc(F)c(F)cc23)ccn1 (stereo not drawn) [Compound 241, N-(5,6-difluoro-1H-indol-3-yl)-2-(1-hydroxypropyl)isonicotinamide]
200 to 1000	O=C(Nc1c[nH]c2cc(F)c(F)cc12)c1cnc(NCCC(F)(F)F)c(F)c1 [Compound 242, N-(5,6-difluoro-1H-indol-3-yl)-5-fluoro-6-((3,3,3-trifluoropropyl)amino)nicotinamide]
200 to 1000	Cc1ncc(C(=O)Nc2c[nH]c3cc(F)c(F)cc23)cc1NCCCC(F)(F)F [Compound 243, N-(5,6-difluoro-1H-indol-3-yl)-6-methyl-5-((4,4,4-trifluorobutyl)amino)nicotinamide]
200 to 1000	O=C(Nc1c[nH]c2cc(F)c(F)cc12)c1ccc(OC2CN(CC(F)(F)F)C2)nc1 [Compound 246, N-(5,6-difluoro-1H-indol-3-yl)-6-((1-(2,2,2-trifluoroethyl)azetidin-3-yl)oxy)nicotinamide]
200 to 1000	O=C(Nc1c[nH]c2cc(F)c(F)cc12)c1ccnc(NC2CC(F)(F)C2)c1 [Compound 247, N-(5,6-difluoro-1H-indol-3-yl)-2-((3,3-difluorocyclobutyl)amino)isonicotinamide]
5000 to 100000	O=C(Nc1c[nH]c2cc(F)c(F)cc12)c1ccc(C2(O)CCOCC2)cc1 [Compound 248, N-(5,6-difluoro-1H-indol-3-yl)-4-(4-hydroxytetrahydro-2H-pyran-4-yl)benzamide]
200 to 1000	CC(C)(C)OC(=O)N1CCC(Oc2ccc(C(=O)Nc3c[nH]c4cc(F)c(F)cc34)cc2)CC1 [Compound 249, tert-butyl 4-{4-[(5,6-difluoro-1H-indol-3-yl)carbamoyl]phenoxy}piperidine-1-carboxylate]
1000 to 5000	O=C(Nc1c[nH]c2cc(F)c(F)cc12)c1ccc(C2(O)CCC(F)(F)CC2)nc1 [Compound 250, 6-(4,4-difluoro-1-hydroxycyclohexyl)-N-(5,6-difluoro-1H-indol-3-yl)nicotinamide]
